A short description of this experiment: Inhibition of Enterovirus 71 Shenzhen/120F1/09 capsid infected in human RD cells assessed as reduction in virus-induced cell death after 72 hrs by CCK-8 assay. Background: Tetrazolium assays rely on reduction of a dye to a coloured formazan, in cell work by metabolically active cells.

Here are results for 22 compounds from BindingDB's records for doi:10.1021/acsmedchemlett.7b00188 (Wuxi Apptec (Shanghai), 2017).

SMILES strings stand for the structures. pEC50: −log10 of the molar value. Where only a bound is given, the exact number is not on record here.

For the compound `O=C1C(=O)N(c2ccncc2)CCN1CCCCCOc1ccc(-c2ccc(Cl)cc2)cc1`, the pEC50 is less than 6.00.
For `CCO/N=C1\CCc2cc(OCCCCCN3CCN(c4ccnc(N)c4)S3(=O)=O)ccc21` the value was 8.40; for `CCO/N=C/c1ccc(OCCC(C)CCN2CCN(c3ccnc(N)c3)C2=O)cc1` (configuration not stated), 10.52.
Next, `S=C1N(CCCCCOc2ccc(-c3ccc(Cl)cc3)cc2)CCN1c1ccncc1`: 5.55; `CCO/N=C1\CCCc2cc(OCCCCCN3CCN(c4ccnc(N)c4)S3(=O)=O)ccc21`: 6.51; `O=C1N(CCCCc2nc3cc(-c4ccc(Cl)cc4)ccc3o2)CCN1c1ccncc1`: 5.96.
Next, `O=C1CC(CCCCN2CCN(c3ccncc3)C2=O)Oc2ccc(-c3ccc(Cl)cc3)cc21` (configuration not stated): 6.27; `CCc1noc2cc(OCCCCCN3CCN(c4ccnc(N)c4)S3(=O)=O)ccc12`: 6.45; `CCn1ccc2cc(OCCCCCN3CCN(c4ccnc(N)c4)S3(=O)=O)ccc21`: less than 6.00.
With `O=C1N(CCCCCOc2ccc(-c3ccc(Cl)cc3)cc2)CCN1c1ccncc1` [1-[5-(4''-Chloro-biphenyl-4-yloxy)-pentyl]-3-pyridin-4-yl-imidazolidin-2-one], the negative-log EC50 (pEC50) was 7.04.
For `CCO/N=C(\CC)c1ccc(OCCCCCN2CCN(c3ccnc(N)c3)S2(=O)=O)cc1` the value was 6.26; for `O=S1(=O)N(CCCCCOc2ccc(-c3ccc(Cl)cc3)cc2)CCN1c1ccncc1`, 6.96.
Regarding `CCO/N=C/c1ccc(OCCCCCN2CCN(c3ccnc(N)c3)S2(=O)=O)cc1`, the pEC50 is 9.05.
For `O=C1CN(c2ccncc2)CCN1CCCCCOc1ccc(-c2ccc(Cl)cc2)cc1` the value was 6.74.
As for `CCO/N=C(\C)c1ccc(OCCCCCN2CCN(c3ccnc(N)c3)S2(=O)=O)cc1`, the negative-log EC50 (pEC50) was 6.22.
Next, `O=C1CN(CCCCCOc2ccc(-c3ccc(Cl)cc3)cc2)CCN1c1ccncc1`: 5.92; `NC(=O)c1ncn([C@@H]2O[C@H](CO)[C@@H](O)[C@H]2O)n1` [Tribavirin]: less than 4.00.
In the case of `Cc1cc(CCCOc2c(C)cc(-c3noc(C(F)(F)F)n3)cc2C)on1` [3-(3,5-dimethyl-4-(3-(3-methylisoxazol-5-yl)propoxy)phenyl)-5-(trifluoromethyl)-1,2,4-oxadiazole], the pEC50 was less than 4.00.
For `O=C1N(CCCCc2cc3cc(-c4ccc(Cl)cc4)ccc3o2)CCN1c1ccncc1`, the pEC50 is 5.96.
Next, `O=C1N(CCCCC2CCc3cc(-c4ccc(Cl)cc4)ccc3O2)CCN1c1ccncc1` (configuration not stated): 7.32; `Nc1cc(N2CCN(CCCCCOc3ccc(-c4ccc(Cl)cc4)cc3)S2(=O)=O)ccn1`: 7.92; `CCn1ncc2cc(OCCCCCN3CCN(c4ccnc(N)c4)S3(=O)=O)ccc21`: less than 6.00.

As a reminder, the pEC50 is −log10 of the EC50, conventionally taken in molar units.
